Measurements published in patent US20100311606A1, “PHARMACOGENOMIC CELL LINE PANEL AND USE THEREOF” (priority 2007, published 2010).

Assays:
[1] = system: lymphoblastoid cell lines; assay: Preliminary gemcitabine cytotoxicity, MTS assay, initial 71 cell lines; format: cell-based; conditions: Homo sapiens, read-out: IC50 values (the drug concentration that inhibited cell growth 50%), variation across initial 71 lymphoblastoid cell lines, 48 hours
Method: Gemcitabine cytotoxicity: Gemcitabine cytotoxicity after drug exposure is a major phenotype that is determined in the course of phenotype-genotype association studies for the lymphoblastoid cell lines. Increasing concentrations of gemcitabine are used to perform the cytotoxicity studies in a 96-well plate format. Approximately 5×10^5 lymphoblastoid cells are incubated overnight in each well before addition of the drug. The cells are then incubated for 48 hours with gemcitabine at 8 different concentrations, ranging from 10^−4 μM to 100 μM. Cytotoxicity is determined using the MTS assay. All studies are performed in triplicate, and both IC50 and LC50 values are calculated. To avoid confounding factors, cytotoxicity studies are performed with equal numbers of cell lines from each ethnic group in every experiment.
IC50 data have been obtained for 71 of 203 cell lines (the 71 cell lines for which Perlegen genome-wide SNP data is available). Significant variation in IC50 values was observed just for the initial 71 cell lines studied (FIG. 14). Each square in FIG. 14 represents an individual sample, and the colors represent different ethnic groups.

in vitro = format: cell-based; conditions: human
Method: (§1) Specifically, once cells grew at an exponential phase, 90 μl of cell suspension were placed into a 96 well flat plate (Corning, Corning, N.Y.) at a density of 5×10^4 cells/well. […] Experiments were performed in triplicate for each concentration. Medium alone was used as a blank, and cells treated with DMSO were used as controls for every plate. At end of the incubation, 20 μl combined MTS/PMS solution were added into each well and incubated at 37° C. for an additional 1-2 hours. The amount of soluble formazan was measured with a SAFIRE™ microplate reader (Tecan A G, Switzerland). An absorbance for the control cells ranging from 0.8 to 1.3 was considered to meet the standard of cytotoxicity assays for the analysis. The final cell viability for each well was calculated using the following formula: relative survival cell number=absorbance (drug-treated cells−blank)/absorbance (control cells−[…]). […] GI50 values at each concentration for each cell lines were then calculated based on the dose response curve. […] In addition, to functionally characterize the effect of the candidate genes on the sensitivity to both drugs, drug cytotoxicity with human tumor cell lines also was analyzed using an MTS assay. […]

[2] = system: MDA-MB-231 breast cancer cells; assay: Cytotoxicity (MTS) after siRNA knockdown of NT5C3 or FKBP5; format: cell-based, human; conditions: for Change of drug sensitivity after FKBP5 siRNA: FKBP5 specific siRNA vs negative siRNA
Method: (§2) Specifically, once cells grew at an exponential phase, 90 μl of cell suspension were placed into a 96 well flat plate (Corning, Corning, N.Y.) at a density of 5×10^4 cells/well. […] Experiments were performed in triplicate for each concentration. Medium alone was used as a blank, and cells treated with DMSO were used as controls for every plate. At end of the incubation, 20 μl combined MTS/PMS solution were added into each well and incubated at 37° C. for an additional 1-2 hours. The amount of soluble formazan was measured with a SAFIRE™ microplate reader (Tecan A G, Switzerland). An absorbance for the control cells ranging from 0.8 to 1.3 was considered to meet the standard of cytotoxicity assays for the analysis. The final cell viability for each well was calculated using the following formula: relative survival cell number=absorbance (drug-treated cells−blank)/absorbance (control cells−[…]). During the entire process from cell culture to cytotoxicity analysis, all cell lines were grown exponentially without antibiotics and were handled by one person under the same condition to minimize the variation introduced by handling. The final dose-response curve for each cell line was plotted based on either 4 parameter logistic with top=100%, or 4 parameter logistic with bottom=0% using an R package. GI50 values at each concentration for each cell lines were then calculated based on the dose response curve. Twelve randomly selected lymphoblastoid cell lines were used to repeat the cytotoxicity studies three months later. In addition, to functionally characterize the effect of the candidate genes on the sensitivity to both drugs, drug cytotoxicity with human tumor cell lines also was analyzed using an MTS assay. The experimental procedures were similar to those for the lymphoblastoid cell lines, except that the cells were incubated overnight in 96 well plates before addition of the two drugs.
(§3) Transient transfection and RNA interference: The human breast cancer cell line, MDA-MB-231, and the human pancreatic cancer cell line, SU86, were used for siRNA studies. The LIPOFECTAMINE™ RNAiMAX reagent (Invitrogen, Carlsbad, Calif.) was used for transient transfection of siRNA according to the manufacturer's instructions. Briefly, cells were growing adhesively until they reached 30-50% confluence in a 6-well plate, and then transfected. siRNAs including NT5C3-siRNA, FKBP5-siRNA and Allstars negative control siRNA (Qiagen) at a final concentration of 50 nM, as well as 5 μL, of LIPOFECTAMINE™ RNAiMAX reagent, were preincubated with 250 μL, reduced serum medium (Invitrogen) for 5 minutes at room temperature before being mixed together. After incubation of the siRNA and LIPOFECTAMINE™ reagent mixtures for 20 minutes at room temperature, this mixture was added to cells in 2 ml culture medium supplied with 10% FBS. Cells were harvested for further assays 48 hours post-transfection.
(§4) Transient transfections were first performed with NT5C3 and FKBP5 specific siRNAs. Western blots verified that both genes were knocked down in both tumor cell lines (FIG. 21A and FIG. 22A). […] That relationship also was confirmed by knockdown experiments performed with FKBP5 specific siRNA.

[3] = system: SU86 pancreatic cancer cells; assay: as above; format: cell-based, human; conditions: for Change of drug sensitivity after FKBP5 siRNA: FKBP5 specific siRNA vs negative siRNA
Method: as §2, §3, §4

MDA-MB-231 cells = assay: Caspase-3/7 activity assay in siRNA-transfected cells; format: cell-based, human; conditions: increasing drug concentrations, 72 hours, compared with negative siRNA
Method: (§5) Error bars represent SEM values for 3 independent experiments.
(§6) Caspase-3/7 activity assay: The caspase-3 activity of siRNA-transfected cells was detected according to the manufacture's protocol using CASPASE-GLO® 3/7 Assay kit (Promega BioSciences, San Luis Obispo, Calif.). Once a proluminescent caspase-3/7 substrate containing the tetrapeptide sequence DEVD is cleaved by caspase-3/7, it will release a substrate for luciferase (amino-luciferin). […] CASPASE-GLO® 3/7 Reagent (100 μl; an equal volume to the cell suspension) was added and incubated for 1 hour at room temperature, followed by detection of luminescence with a luminometer. Wells containing culture medium alone were used as controls.
(§7) One possibility would involve the blockade of apoptosis signaling pathways as a result of FKBP5 knock-down. FKBP5 has been reported to be involved in apoptosis through a calcineurin-dependent pathway (Giraudier et al. Blood (2002) 100:2932-2940). To test that hypothesis, caspase-3/7 activity assays were performed to determine whether alterations in FKBP5 expression might influence apoptotic signaling. […] Specific mechanisms by which FKBP5 might influence apoptosis will require future clarification.

SU86 cells = assay: as above; format: cell-based, human; conditions: increasing drug concentrations, 72 hours, compared with negative siRNA
Method: as §5, §6, §7

thymidine kinase 2 (TK2) = molecular target: T1, thymidine kinase 2 (TK2) (Homo sapiens, UniProt O00142); conditions: as well as deoxycytidine; cited from earlier work
T1 sequence (O00142 34-265): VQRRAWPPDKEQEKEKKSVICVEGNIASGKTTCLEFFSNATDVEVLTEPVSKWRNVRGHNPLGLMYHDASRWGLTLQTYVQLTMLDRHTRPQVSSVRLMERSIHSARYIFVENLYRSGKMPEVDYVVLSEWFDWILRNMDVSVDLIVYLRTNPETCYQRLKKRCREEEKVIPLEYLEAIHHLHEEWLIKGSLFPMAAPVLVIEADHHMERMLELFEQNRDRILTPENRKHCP

[4] = system: patients with pancreatic cancer; conditions: patients treated with gemcitabine; cited from earlier work
[5] = system: human lymphoblastoid cell lines; assay: Gemcitabine and AraC cytotoxicity assay (MTS/PMS), Human Variation Panel; format: cell-based; conditions: 197 cell lines; mean±SD; 72 hours; read-out: Average unadjusted LC50
Method: as §1

[6] = system: lymphoblastoid cell lines; assay: Intracellular active metabolites by HPLC after drug treatment; conditions: after AraC treatment
Method: To measure the intracellular metabolite levels in drug-treated lymphoblastoid cell lines, an HPLC assay was developed to measure AraCDP, AraCTP as well as dFdCDP and dFdCTP. […] Five×10^6 cells were centrifuged and washed with ice-cold phosphate buffered saline (PBS), followed by resuspension in 135 μL, of ice-cold PBS with 15 μL, of 100 μM AraCTP or dFdCTP as internal standards. Subsequently 50 μL, of 40% ice cold TCA was added, and the mixture was vortexed for 1 minute and chilled on ice for 20 minutes, followed by centrifugation. The supernatant was neutralized by adding 400 μL, of freshly prepared trioctylamine:trichlorotrifluoroethane (1:4). After centrifugation at 4° C. for 1 minute, the aqueous phase (nucleotide extract) was removed and stored at −20° C. for HPLC analysis.
Nucleotide analogue metabolites were separated from native nucleotides on a ZirChrom SAX HPLC column in HPLC assay. […] Mobile phase A was 10 mM K2HPO4 and 40 mM NaCl, pH 6.8. Mobile phase B was 100 mM K2HPO4 and 400 mM K2HPO4, pH 6.8. Detection was performed by monitoring the absorbance with a photo-diode array between 240-290 nm to obtain a typical chromatogram. The amount of intracellular metabolites in 5×10^6 cells was quantified with a standard curve prepared by spiking the 5×10^6 untreated control cells with pure compound, immediately followed by nucleotide extraction.

[7] = NT5C3 specific siRNA vs negative siRNA
[8] = average of 7 resistant cell samples
[9] = average of 7 sensitive cell samples

Row | Structure (SMILES) | IC50 [1] | CC50 at 72 h (in vitro) | Change of drug sensitivity after FKBP5 siRNA [2] | Change of drug sensitivity (dose response curve) after NT5C3 siRNA [2, 7] | Change of drug sensitivity after FKBP5 siRNA [3] | Change of drug sensitivity (dose response curve) after NT5C3 siRNA [3, 7] | caspase-3/7 activity in FKBP5 siRNA-treated cells (MDA-MB-231 cells) | caspase-3/7 activity in FKBP5 siRNA-treated cells (SU86 cells) | phosphorylation by TK2 relative to deoxycytidine (thymidine kinase 2 (TK2)) | patients with life expectancies of over one year [4] | CC50 [5] | AraCDP, Resistant, Average ± SEM [6, 8] | AraCTP, Resistant, Average ± SEM [6, 8] | AraCDP, Sensitive, Average ± SEM [6, 9] | AraCTP, Sensitive, Average ± SEM [6, 9]
1 | Nc1ccn([C@@H]2O[C@H](CO)[C@@H](O)C2(F)F)c(=O)n1 [gemcitabine, 2′,2′-difluorodeoxycytidine] | 4 to 80 nM | 25.3 ± 30.7 nM | desensitized | increased sensitivity | desensitized | increased sensitivity | significantly decreased | significantly decreased | 5-10% | approximately 20% | – | – | – | – | –
2 | Nc1ccn([C@@H]2O[C@H](CO)[C@@H](O)[C@@H]2O)c(=O)n1 [AraC, cytosine arabinoside] | – | – | desensitized | – | desensitized | – | significantly decreased | significantly decreased | – | – | 8400 ± 14300 nM | 0.65 ± 0.13 | 2.62 ± 0.40 | 1.02 ± 0.18 | 4.43 ± 0.56
